Results from ChEMBL document CHEMBL1137407, “Identification and optimization of anthranilic sulfonamides as novel, selective cholecystokinin-2 receptor antagonists” (J Med Chem, 2006).

Legend:
[1] = target: T1, Gastrin/cholecystokinin type B receptor (Homo sapiens, UniProt P32239)
T1 sequence (P32239 whole entry): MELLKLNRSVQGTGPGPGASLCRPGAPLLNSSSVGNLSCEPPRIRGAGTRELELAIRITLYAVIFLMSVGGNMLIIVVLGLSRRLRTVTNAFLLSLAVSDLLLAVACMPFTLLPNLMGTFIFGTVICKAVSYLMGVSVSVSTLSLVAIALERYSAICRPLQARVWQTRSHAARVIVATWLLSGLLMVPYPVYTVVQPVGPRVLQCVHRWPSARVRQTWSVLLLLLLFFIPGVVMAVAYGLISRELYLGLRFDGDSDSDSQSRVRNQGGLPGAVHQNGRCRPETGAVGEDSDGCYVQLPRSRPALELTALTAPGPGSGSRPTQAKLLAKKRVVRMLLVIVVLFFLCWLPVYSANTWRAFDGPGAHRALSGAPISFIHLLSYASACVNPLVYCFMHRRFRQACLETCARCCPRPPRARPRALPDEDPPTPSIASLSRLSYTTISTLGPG
Description: Displacement of [125I]CCK-8S from human CCK2R

[2] = target: T2, Cholecystokinin receptor type A (Homo sapiens, UniProt P32238)
T2 sequence (P32238 whole entry): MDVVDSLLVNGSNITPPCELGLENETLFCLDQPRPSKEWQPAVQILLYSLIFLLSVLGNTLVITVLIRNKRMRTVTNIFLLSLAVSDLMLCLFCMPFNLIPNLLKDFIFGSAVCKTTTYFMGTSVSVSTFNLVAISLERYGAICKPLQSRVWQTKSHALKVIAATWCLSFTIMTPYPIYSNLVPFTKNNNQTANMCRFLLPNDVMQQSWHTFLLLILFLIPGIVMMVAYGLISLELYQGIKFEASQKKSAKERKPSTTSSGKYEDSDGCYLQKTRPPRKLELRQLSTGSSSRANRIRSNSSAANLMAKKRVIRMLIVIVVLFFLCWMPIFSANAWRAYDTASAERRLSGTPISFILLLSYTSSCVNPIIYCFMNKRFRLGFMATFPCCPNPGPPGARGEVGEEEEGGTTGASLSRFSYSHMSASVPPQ
Description: Displacement of [125I]CCK-8S from human CCK1R

Row | Compound | Ki ([1]; read-out: Log Ki (converted)) [µM] | Ki ([2]; read-out: Ki) [µM] | Ki ([1]; read-out: Ki) [µM] | Ki ([2]; read-out: Log Ki (converted)) [µM]
1 | C[C@H]1COC[C@H](C)N1C(=O)c1ccc(Cl)cc1NS(=O)(=O)c1cccc2nccnc12 | 5.01 | > 10 | – | –
2 | O=C(c1ccc(Br)cc1NS(=O)(=O)c1cccc2nccnc12)N1CCOCC1 | – | > 10 | – | –
3 | CC(=O)Nc1ccc(C(=O)N2CCCCC2)c(NS(=O)(=O)c2cccc3nsnc23)c1 | – | > 10 | > 10 | –
4 | O=C(c1ccc(C(F)(F)F)cc1NS(=O)(=O)c1cccc2nsnc12)N1CCCCC1 | 0.0631 | > 10 | – | –
5 | O=C(c1ccc(Br)cc1NS(=O)(=O)c1cccc2cnccc12)N1CCCCC1 | – | > 10 | > 10 | –
6 | O=C(c1ccc(NCc2ccccc2)cc1NS(=O)(=O)c1cccc2nsnc12)N1CCCCC1 | 1.26 | > 10 | – | –
7 | O=C(c1ccc(Cl)cc1NS(=O)(=O)c1cccc2nccnc12)N1CCOCC1 | – | > 10 | – | –
8 | C[C@@H]1C=C[C@H](C)N1C(=O)c1ccc(Cl)cc1NS(=O)(=O)c1cccc2nsnc12 | 0.2 | > 10 | – | –
9 | O=C(c1ccc(Cl)cc1NS(=O)(=O)c1cccc2nsnc12)N1CCC(c2ccccc2)CC1 | 0.0631 | > 10 | – | –
10 | O=C(c1ccc(Cl)cc1NS(=O)(=O)c1cccc2nsnc12)N1CCCC1 | 0.251 | > 10 | – | –
11 | O=C(c1c(Cl)cccc1NS(=O)(=O)c1cccc2nsnc12)N1CCCCC1 | 1 | > 10 | – | –
12 | O=C(c1ccc(-c2ccco2)cc1NS(=O)(=O)c1cccc2nsnc12)N1CCCCC1 | 0.126 | > 10 | – | –
13 | O=C(c1ccc([N+](=O)[O-])cc1NS(=O)(=O)c1cccc2nsnc12)N1CCCCC1 | – | > 10 | – | –
14 | O=C(N[C@@H](Cc1ccccc1)C(=O)O)c1ccc(Br)cc1NS(=O)(=O)c1cc2ccccc2[nH]1 | 2 | – | – | –
15 | O=C(c1ccc(Br)cc1NS(=O)(=O)c1ccc2nsnc2c1)N1CCCCC1 | > 10 | > 10 | – | –
16 | O=C(O)c1ccc(C(=O)N2CCCCC2)c(NS(=O)(=O)c2cccc3nsnc23)c1 | – | > 10 | > 10 | –
17 | O=C(c1ccc(-n2cccc2)cc1NS(=O)(=O)c1cccc2nsnc12)N1CCCCC1 | 0.501 | > 10 | – | –
18 | O=C(c1ccc(Cl)cc1NS(=O)(=O)c1cccc2nsnc12)N1CCC(N2CCCCC2)CC1 | – | > 10 | > 10 | –
19 | O=C(Nc1ccc(C(=O)N2CCCCC2)c(NS(=O)(=O)c2cccc3nsnc23)c1)c1ccccc1 | 7.94 | – | – | –
20 | O=C(c1ccc(I)cc1NS(=O)(=O)c1cccc2nsnc12)N1CCOCC1 | – | > 10 | – | –
21 | CN(C)c1ccc(C(=O)N2CCCCC2)c(NS(=O)(=O)c2cccc3nsnc23)c1 | 0.316 | > 10 | – | –

Row | Compound | Ki ([1]; read-out: Log Ki (converted)) [µM] | Ki ([2]; read-out: Ki) [µM] | Ki ([1]; read-out: Ki) [µM] | Ki ([2]; read-out: Log Ki (converted)) [µM]
22 | O=C(c1ccc(Cl)cc1NS(=O)(=O)c1cccc2nsnc12)N1CCOCC1 | 0.316 | > 10 | – | –
23 | O=C(c1ccc(OC2CCCC2)cc1NS(=O)(=O)c1cccc2nsnc12)N1CCCCC1 | 0.158 | > 10 | – | –
24 | Cc1ccc2nsnc2c1S(=O)(=O)Nc1cc(Br)ccc1C(=O)N1CCCCC1 | 0.1 | > 10 | – | –
25 | O=C(c1ccc(Br)cc1NS(=O)(=O)c1c(F)ccc2nsnc12)N1CCCCC1 | 0.0398 | > 10 | – | –
26 | O=C(c1ccc(F)cc1NS(=O)(=O)c1cccc2nsnc12)N1CCOCC1 | 3.98 | > 10 | – | –
27 | Cc1ccc(S(=O)(=O)Nc2cc(Br)ccc2C(=O)N2CCCCC2)c2nsnc12 | 0.1 | > 10 | – | –
28 | O=C(N[C@@H](Cc1ccccc1)C(=O)O)c1ccccc1NS(=O)(=O)c1cc2ccccc2[nH]1 | 5.01 | – | – | –
29 | CCc1ccc(C(=O)N2CCCCC2)c(NS(=O)(=O)c2cccc3nsnc23)c1 | 0.251 | > 10 | – | –
30 | O=C(c1ccc(Cl)c(NS(=O)(=O)c2cccc3nsnc23)c1)N1CCCCC1 | – | > 10 | > 10 | –
31 | O=C(c1ccc(Cl)cc1NS(=O)(=O)c1cccc2nsnc12)N1CCSC1 | – | > 10 | – | –
32 | O=C(c1ccc(Br)cc1NS(=O)(=O)c1cccc2ccccc12)N1CCCCC1 | – | > 10 | > 10 | –
33 | COc1ccc(C(=O)N2CCCCC2)c(NS(=O)(=O)c2cccc3nsnc23)c1 | 0.631 | > 10 | – | –
34 | O=C(Nc1ccccc1C(=O)NC(Cc1ccccc1)C(=O)O)c1cc2ccccc2[nH]1 (stereo unspecified) | – | – | > 10 | 0.0316
35 | COc1cc(C(=O)N2CCCCC2)c(NS(=O)(=O)c2cccc3nsnc23)cc1Cl | 0.501 | > 10 | – | –
36 | O=C(c1ccc(Cl)cc1NS(=O)(=O)c1cccc2nsnc12)N1CCC(CO)CC1 | 1.26 | > 10 | – | –
37 | O=C(c1cc(Br)c(Br)cc1NS(=O)(=O)c1cccc2nsnc12)N1CCCCC1 | 0.01 | > 10 | – | –
38 | COc1cc(NS(=O)(=O)c2cccc3nsnc23)c(C(=O)N2CCCCC2)cc1OC | 2.51 | > 10 | – | –
39 | O=C(c1ccc(I)cc1NS(=O)(=O)c1cccc2nsnc12)N1CCCCC1 | 0.00501 | > 10 | – | –
40 | O=C(c1ccc(Cl)cc1NS(=O)(=O)c1cccc2cccnc12)N1CCCCC1 | – | > 10 | > 10 | –
41 | O=C(c1ccc(Br)cc1NS(=O)(=O)c1cccc2ncccc12)N1CCCCC1 | 0.794 | > 10 | – | –
42 | O=C(c1ccc(Cl)cc1NS(=O)(=O)c1cccc2nsnc12)N1CCC[C@H]1CN1CCCC1 | – | > 10 | > 10 | –

Row | Compound | Ki ([1]; read-out: Log Ki (converted)) [µM] | Ki ([2]; read-out: Ki) [µM] | Ki ([1]; read-out: Ki) [µM] | Ki ([2]; read-out: Log Ki (converted)) [µM]
43 | CN(c1cc(Br)ccc1C(=O)N1CCCCC1)S(=O)(=O)c1cccc2nsnc12 | – | > 10 | > 10 | –
44 | O=C(c1cc(Br)ccc1NS(=O)(=O)c1cccc2nsnc12)N1CCCCC1 | 0.794 | – | – | –
45 | CN1CCN(C(=O)c2ccc(Cl)cc2NS(=O)(=O)c2cccc3nsnc23)CC1 | 2.51 | > 10 | – | –
46 | CC1CC(C)CN(C(=O)c2ccc(Cl)cc2NS(=O)(=O)c2cccc3nsnc23)C1 (stereo unspecified) | 1.26 | > 10 | – | –
47 | O=C(c1ccc(Cl)cc1NS(=O)(=O)c1cccc2nsnc12)N1CCC1 | 1.58 | > 10 | – | –
48 | O=C(c1ccc(F)cc1NS(=O)(=O)c1cccc2nsnc12)N1CCCCC1 | 1 | – | – | –
49 | CC1CN(C(=O)c2ccc(Cl)cc2NS(=O)(=O)c2cccc3nsnc23)CCN1 (stereo unspecified) | – | > 10 | > 10 | –
50 | O=C(c1ccc(Cl)cc1NS(=O)(=O)c1cccc2nsnc12)N1CCc2ccccc2C1 | 1 | > 10 | – | –
51 | O=C(c1ccc(CS)cc1NS(=O)(=O)c1cccc2nsnc12)N1CCCCC1 | 0.1 | > 10 | – | –
52 | O=C(c1ccccc1NS(=O)(=O)c1cccc2nsnc12)N1CCOCC1 | – | > 10 | > 10 | –
53 | O=C(O)[C@@H]1CCCN1C(=O)c1ccc(Cl)cc1NS(=O)(=O)c1cccc2nsnc12 | – | > 10 | > 10 | –
54 | O=C(Nc1cc(Br)ccc1C(=O)N1CCCCC1)c1cccc2nsnc12 | – | > 10 | > 10 | –
55 | O=C(NCc1ccccc1)c1ccc(Cl)cc1NS(=O)(=O)c1cccc2nsnc12 | 2.51 | > 10 | – | –
56 | Cc1cccc(C(=O)N2CCCCC2)c1NS(=O)(=O)c1cccc2nsnc12 | – | > 10 | > 10 | –
57 | O=C(c1ccc(Br)cc1NS(=O)(=O)c1ccc(Br)c2nsnc12)N1CCCCC1 | 0.158 | > 10 | – | –
58 | O=C(c1cc2ccccc2cc1NS(=O)(=O)c1cccc2nsnc12)N1CCCCC1 | 0.126 | > 10 | – | –
59 | C[C@@H]1COC[C@H](C)N1C(=O)c1ccc(Cl)cc1NS(=O)(=O)c1cccc2nccnc12 | 0.631 | > 10 | – | –
60 | O=C(c1ccc(-c2ccccc2)cc1NS(=O)(=O)c1cccc2nsnc12)N1CCCCC1 | 0.158 | > 10 | – | –
61 | O=C(c1ccccc1NS(=O)(=O)c1cccc2nsnc12)N1CCCCC1 | – | – | > 10 | –
